# What was measured:
# cardiac myocytes = assay: Cardiac cell protective and adaptive (anabolic) effects in vitro, comparison of alpha-1-agonists; format: cell-based; settings: neonatal rat and adult mouse cardiac myocytes, FIG. 1-3
# [1] = Pressure overload cardiomyopathy (transverse aortic constriction, TAC) model; format: in vivo, mouse
# Text: FIG. 7. A61603 rescues pressure overload cardiomyopathy. Mice had echo 2 weeks after TAC, at which time they were randomized to treatment with A61603, at the same low dose, or vehicle. Fractional shortening, an index of cardiac function, was depressed by TAC, and improved with A61603, but not with vehicle.
# FIG. 8. A61603 in pressure overload cardiomyopathy improves growth and protection, and reduces fibrosis.
# Studies in mice looking at alpha-1 agonist therapy, using A61603, in a model of heart failure due to pressure overload (transverse aortic constriction model). A model of pressure overload was tested for 2 reasons: (1) test generality of A61603 effects in different types of cardiomyopathy; and (2) test treatment (rescue), rather than prevention, i.e. A61603 given at an interval of time after injury, when cardiomyopathy was already manifest. We used an adult mouse model of transverse aortic constriction (TAC), with the aorta surgically narrowed, so that the heart had to pump against an increased pressure (pressure overload). […] A61603 treatment rescued the cardiomyopathy, as measured by heart function (FIG. 7). […] Thus improvement in function caused by A61603 was again due to direct effects on cardiac muscle cells. The alpha-1A agonist A61603 at a low dose rescues (e.g. treats) cardiomyopathy due to pressure overload, an injury that simulates several types of cardiac disease, and the mechanism is improvement of cardiac myocytes.
# [2] = 1 week subcutaneous infusion (osmotic minipump) in adult mice: BP and heart signaling; format: in vivo, mouse
# Procedure: FIG. 5. A61603 activates heart signaling at a BP-neutral dose. A61603 was infused subcutaneously (osmotic minipump) for 1 week in adult mice, and BP was measured daily. There was no change in average BP at the low dose, in agreement with the intravenous (IV) route in another study, and with phenylephrine (PE) given in humans (left side). BP effects of A61603 are absent in the alpha-1A KO (AKO), again showing the selectivity of the drug for that receptor (left). At the end of 1 week, the heart was removed to measure ERK activation, and increases in heart mRNAs and area (size), reflecting protective (ERK) adaptive (mRNAs, area) effects on heart muscle cells. A61603 at the low dose of 10 ng/kg/d increased these endpoints.
# The classic effect of alpha-1-agonists is to increase BP by stimulating smooth muscle cells to contract. It could be a disadvantage in heart failure (HF) therapy to increase BP excessively. On the other hand, all current recommended drugs in HF reduce BP, and a drug that increased BP slightly might have a strong therapeutic advantage. […] The foregoing experiments provided the rationale to test treatment with A61603 at 10 ng/kg/d in a mouse model of cardiomyopathy and HF.
# [3] = Traumatic brain injury (TBI) by cortical impact, MRI; format: in vivo, mouse; settings: 4 weeks treatment, vs vehicle
# Text: FIG. 16. The alpha-1A agonist A61603 reduces the amount of brain damage after TBI, quantified by MRI. Mice had TBI by cortical impact, followed by 4 weeks treatment with A61603 or vehicle. MRI was done to identify viable brain (dark) and fluid-filled areas of lost brain tissue (bright) (left). The volume of dead brain was 50% less with A61603 (red, right).
# To test this, we used a mouse model of traumatic brain injury (TBI), produced by a piston impact on the cerebral cortex, done through a hole in the skull. TBI is a clinical problem of great and growing importance.
# We tested the model in the alpha-1A knockout (KO) mouse. TBI in the alpha-1A KO caused the worst damage, compared with normal mice and mice with the alpha-1B KO (FIG. 15). We tested A61603 in normal wild type mice, using the same low BP-neutral dose employed in the cardiac studies, 10 ng/kg/d. The protocol was a prevention trial, and the end-point was magnetic resonance imaging (MRI), which can quantify the amount of dead and viable brain tissue in the living subject (e.g. mouse, human) non-invasively. A61603 reduced the amount of dead brain tissue after TBI (FIG. 16).
# neurons in brain slices = assay: Adult mouse brain slices injured with H2O2 ex vivo; format: cell-based; settings: H2O2, 2 h
# Procedure: FIG. 13. Brain slice model to study alpha-1A agonist in vitro. Thin brain slices were injured with hydrogen peroxide (H2O2), which simulates most forms of ischemic and traumatic injury at the cell level, in the presence or absence of A61603. After 2 hr, dead neurons (PI) and living neurons (ATP) were measured.
# FIG. 14. A61603 protects neurons in brain slices from oxidative injury in vitro. Slices were treated with H2O2 or vehicle (Veh) for 2 hr, in the presence of A61603, or absence (Veh).
# Studies were conducted in mice looking at alpha-1 agonist therapy, using A61603, in a model of traumatic brain injury. Alpha-1-ARs are 10 times more abundant in neurons than in cardiac myocytes, and the alpha-1A subtype is the most abundant. […]
# Alpha-1A-adrenergic receptors (α1A-ARs) have a protective trophic role in the heart. α1A-AR levels are high in the brain, and neuroprotection by norepinephrine is known. […] Ex vivo, we quantified ATP levels (marker for survival) in mouse brain slices injured by 10μ, M H2O2 and treated for 2 h with A61603 (a1A-AR specific agonist) or Vehicle. We quantified the number of dead neurons (propidium iodide (PI) positive) out of total (NeuN positive) in the same treated slices by immunohistochemistry (IHC). In vivo, we measured brain infarct size (BrdU-positive glial cells) after transient focal ischemia and reperfusion (IR) in α1ABKO and WT mice. […]
compound,measurement,setting,value
"CS(=O)(=O)Nc1c(O)ccc2c1CCCC2C1=NCCN1 (stereo not drawn) [A61603, N-[1-(4,5-dihydro-1H-imidazol-2-yl)-6-hydroxy-tetralin-5-yl]methanesulfonamide]",potency and efficacy relative to several other alpha-1-agonists,cardiac myocytes,more potent (i.e. worked at a lower dose) and efficacious (i.e. had a larger total effect)
same,degree of overload (the gradient),[1]; A61603 vs vehicle group after TAC,the same in both groups
same,adaptive proteins (myosin or MF20 and beta-myosin or bMHC),[1]; TAC,more adaptive proteins
same,collagen fibrosis (Col I),[1]; TAC,less collagen fibrosis
same,heart weight normalized to body weight (HW/BW),[1]; TAC,less abnormal enlargement
same,protection (ERK),[1]; TAC,higher protection
same,fractional shortening,"[1]; treatment started 2 weeks after TAC, low dose, vs vehicle",improved
same,heart ERK activation,"[2]; 10 ng/kg/d, end of 1 week",increased
same,heart area (size),"[2]; 10 ng/kg/d, end of 1 week",increased
same,heart mRNAs,"[2]; 10 ng/kg/d, end of 1 week",increased
same,BP effects in alpha-1A KO (AKO),"[2]; alpha-1A KO mice, subcutaneous infusion 1 week",absent
same,average BP,"[2]; low dose, subcutaneous infusion 1 week, BP measured daily",no change
same,"volume of dead brain, less with A61603",[3],50%
same,ATP levels after H2O2,"neurons in brain slices; N=2, vehicle 5.5±0.5",8±1 nmol/mg protein
same,number of dead neurons caused by H2O2 (PI positive out of total NeuN positive),"neurons in brain slices; N=2, vehicle 86±5.3",46±0.3

# Source: patent publication US9364462B2, “Alpha-1-adrenergic receptor agonist therapy” (The Regents of the University of California, priority 2012, dated 2016)
